{"source": "patent US20210130806A1", "about": "“ENGINEERED BACTERIA EXPRESSING RACEMASE FOR TREATING DISEASES ASSOCIATED WITH HYPERAMMONEMIA” (Synlogic Operating Company, Inc., priority 2017, published 2021)", "origin": "cited, not measured here", "key": {"hepatic encephalopathy": {"tested_on": "hepatic encephalopathy", "details": "compared with placebo, over a 6-month period"}, "E. coli": {"tested_on": "E. coli", "details": "in vitro and in clinical studies"}}}
{"smiles": "CO[C@H]1/C=C/O[C@@]2(C)Oc3c(C)c(O)c4c(O)c(c5c(nc6cc(C)ccn65)c4c3C2=O)NC(=O)/C(C)=C\\C=C\\[C@H](C)[C@H](O)[C@@H](C)[C@@H](O)[C@@H](C)[C@H](OC(C)=O)[C@@H]1C", "note": "[Rifaximin]", "values": [{"measurement": "risk of an episode of hepatic encephalopathy", "setting": "hepatic encephalopathy", "value": "significantly reduce"}, {"measurement": "activity against E. coli", "setting": "E. coli", "value": "active"}]}
